# Calls of active or inactive are those of the source. No cut-off for these calls is given here.
# Legend:
# [1] = molecular target: T1, Signal transducer and activator of transcription 3 (Homo sapiens, UniProt P40763); assay: Inhibition of IL-6 induced STAT3 phosphorylation at Tyr705 residue in human MCF7 cells at 1 uM preincubated for 1 hr followed by IL-6 stimulation and measured after 1 hr by Western blot analysis relative to control; type: cell-based
# MCF7 [2] = assay: Cytotoxicity against human MCF7 cells assessed as reduction in cell proliferation measured after 72 hrs by WST8 assay; type: functional, cell-based; conditions: MCF7, 72 h
# [3] = molecular target: T1, Signal transducer and activator of transcription 3; assay: Inhibition of IL-6 induced STAT3 phosphorylation at Tyr705 residue in human MCF7 cells at 10 uM preincubated for 1 hr followed by IL-6 stimulation and measured after 1 hr by Western blot analysis relative to control; type: cell-based
# A549 = assay: Cytotoxicity against human A549 cells assessed as reduction in cell proliferation measured after 72 hrs by WST8 assay; type: functional, cell-based; conditions: A549, 72 h
# MDA-MB-231 [4] = assay: Cytotoxicity against human MDA-MB-231 cells assessed as reduction in cell proliferation measured after 72 hrs by WST8 assay; type: functional, cell-based; conditions: MDA-MB-231, 72 h
# MDA-MB-231 [5] = assay: Inhibition of JAK/STAT signaling in human MDA-MB-231 cells assessed as decrease in STAT3 phosphorylation by measuring phosphorylated intensity level at 0.5 uM incubated for 2 hrs by Western blot analysis (reference value: 100%); type: cell-based; design: scale not given: the % may be the effect or the level left
# MDA-MB-231 [6] = assay: Inhibition of JAK/STAT signaling in human MDA-MB-231 cells assessed as decrease in STAT3 phosphorylation incubated for 2 hrs by Western blot analysis; type: cell-based
# MDA-MB-231 [7] = assay: Inhibition of JAK/STAT signaling in human MDA-MB-231 cells assessed as decrease in STAT3 phosphorylation by measuring phosphorylated intensity level at 1 uM incubated for 2 hrs by Western blot analysis (reference value: 100%); type: cell-based; design: scale not given: the % may be the effect or the level left
# MCF7 [8] = assay: Effect on total STAT3 level in IL-6 induced human MCF7 cells at 0.5 to 4 uM preincubated for 1 hr followed by IL-6 stimulation and measured after 1 hr by Western blot analysis; type: ADME, cell-based; conditions: mcf7, 1 h
# [9] = molecular target: Tyrosine-protein kinase JAK1 (Homo sapiens) (UniProt P23458); assay: Inhibition of human recombinant N-terminal GST-tagged JAK1 (850 to 1154 residue) expressed in baculovirus expression system at 100 uM using JAK1 peptide as substrate by mobility shift assay relative to control
# Sequence of Tyrosine-protein kinase JAK1 (Homo sapiens) (P23458 whole entry): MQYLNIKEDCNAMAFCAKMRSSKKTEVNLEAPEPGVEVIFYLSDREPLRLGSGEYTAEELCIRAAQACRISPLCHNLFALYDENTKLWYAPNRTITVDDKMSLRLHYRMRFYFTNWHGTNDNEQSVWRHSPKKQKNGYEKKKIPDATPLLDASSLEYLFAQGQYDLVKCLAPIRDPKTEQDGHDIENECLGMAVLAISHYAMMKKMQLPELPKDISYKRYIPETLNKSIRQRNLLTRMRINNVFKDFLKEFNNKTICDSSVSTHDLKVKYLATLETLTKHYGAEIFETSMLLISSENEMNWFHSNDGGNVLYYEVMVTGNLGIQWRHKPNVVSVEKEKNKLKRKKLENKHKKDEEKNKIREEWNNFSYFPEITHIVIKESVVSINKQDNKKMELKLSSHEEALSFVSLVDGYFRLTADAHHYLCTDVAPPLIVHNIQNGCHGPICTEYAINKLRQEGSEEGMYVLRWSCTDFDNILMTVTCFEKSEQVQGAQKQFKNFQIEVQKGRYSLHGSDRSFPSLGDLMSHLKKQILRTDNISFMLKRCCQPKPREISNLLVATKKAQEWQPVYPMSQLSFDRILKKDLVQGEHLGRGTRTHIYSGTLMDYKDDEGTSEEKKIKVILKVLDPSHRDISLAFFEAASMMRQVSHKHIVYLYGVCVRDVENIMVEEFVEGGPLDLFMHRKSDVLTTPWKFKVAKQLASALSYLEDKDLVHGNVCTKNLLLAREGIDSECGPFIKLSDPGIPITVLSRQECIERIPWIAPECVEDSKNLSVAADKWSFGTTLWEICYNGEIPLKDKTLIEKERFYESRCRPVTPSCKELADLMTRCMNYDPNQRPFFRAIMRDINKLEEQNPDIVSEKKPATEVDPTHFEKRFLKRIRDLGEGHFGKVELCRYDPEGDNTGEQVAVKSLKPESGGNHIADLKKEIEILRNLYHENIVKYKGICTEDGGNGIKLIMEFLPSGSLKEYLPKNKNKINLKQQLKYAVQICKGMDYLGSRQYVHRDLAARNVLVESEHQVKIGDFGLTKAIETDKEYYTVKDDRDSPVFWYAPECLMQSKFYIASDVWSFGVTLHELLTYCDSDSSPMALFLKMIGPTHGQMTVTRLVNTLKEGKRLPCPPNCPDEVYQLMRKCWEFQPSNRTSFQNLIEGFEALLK
# MDA-MB-231 [10] = assay: Inhibition of JAK/STAT signaling in human MDA-MB-231 cells assessed as decrease in STAT3 phosphorylation by measuring phosphorylated intensity level at 4 uM incubated for 2 hrs by Western blot analysis (reference value: 100%); type: cell-based; design: scale not given: the % may be the effect or the level left
# MDA-MB-231 [11] = assay: Inhibition of JAK/STAT signaling in human MDA-MB-231 cells assessed as decrease in STAT3 phosphorylation by measuring phosphorylated intensity level at 2 uM incubated for 2 hrs by Western blot analysis (reference value: 100%); type: cell-based; design: scale not given: the % may be the effect or the level left
# [12] = molecular target: T2, Tyrosine-protein kinase JAK3 (Homo sapiens) (UniProt P52333); assay: Inhibition of human recombinant N-terminal His-tagged JAK3 (795 to 1124 residue) expressed in baculovirus infected Sf21 insect cells up to 100 uM using Srctide as substrate by mobility shift assay
# T2 sequence (whole entry): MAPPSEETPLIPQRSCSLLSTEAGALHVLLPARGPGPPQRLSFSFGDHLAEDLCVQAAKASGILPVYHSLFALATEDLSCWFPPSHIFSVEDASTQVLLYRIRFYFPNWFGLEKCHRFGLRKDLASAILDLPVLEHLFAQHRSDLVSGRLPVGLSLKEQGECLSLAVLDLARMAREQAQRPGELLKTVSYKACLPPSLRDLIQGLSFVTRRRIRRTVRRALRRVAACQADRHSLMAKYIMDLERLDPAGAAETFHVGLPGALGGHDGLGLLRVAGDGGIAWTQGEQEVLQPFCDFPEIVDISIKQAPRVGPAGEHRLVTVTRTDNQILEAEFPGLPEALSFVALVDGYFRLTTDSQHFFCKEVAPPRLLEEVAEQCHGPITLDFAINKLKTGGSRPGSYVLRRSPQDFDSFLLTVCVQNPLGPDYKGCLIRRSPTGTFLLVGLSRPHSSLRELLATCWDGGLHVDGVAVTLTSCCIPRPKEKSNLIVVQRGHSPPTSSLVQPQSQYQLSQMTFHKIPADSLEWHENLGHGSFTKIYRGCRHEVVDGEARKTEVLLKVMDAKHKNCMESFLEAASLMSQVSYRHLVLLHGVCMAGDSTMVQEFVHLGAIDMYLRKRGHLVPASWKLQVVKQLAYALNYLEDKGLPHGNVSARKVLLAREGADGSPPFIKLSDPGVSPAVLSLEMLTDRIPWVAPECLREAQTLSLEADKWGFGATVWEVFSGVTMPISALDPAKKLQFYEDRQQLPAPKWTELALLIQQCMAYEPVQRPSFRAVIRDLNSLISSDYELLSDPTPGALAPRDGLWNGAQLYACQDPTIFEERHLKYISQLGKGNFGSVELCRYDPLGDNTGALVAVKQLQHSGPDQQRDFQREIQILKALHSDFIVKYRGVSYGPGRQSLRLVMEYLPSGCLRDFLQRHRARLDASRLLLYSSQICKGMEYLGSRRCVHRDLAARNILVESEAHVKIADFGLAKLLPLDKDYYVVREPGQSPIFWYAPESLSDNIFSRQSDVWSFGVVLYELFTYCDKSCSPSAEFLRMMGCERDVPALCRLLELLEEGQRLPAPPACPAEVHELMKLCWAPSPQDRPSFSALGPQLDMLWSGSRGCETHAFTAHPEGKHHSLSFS
# [13] = molecular target: Tyrosine-protein kinase JAK2 (Homo sapiens) (UniProt O60674); assay: Inhibition of human recombinant N-terminal His-tagged JAK2 (826 to 1132 residue) expressed in baculovirus expression system at 100 uM using Srctide as substrate by mobility shift assay relative to control
# Sequence of Tyrosine-protein kinase JAK2 (Homo sapiens) (O60674 whole entry): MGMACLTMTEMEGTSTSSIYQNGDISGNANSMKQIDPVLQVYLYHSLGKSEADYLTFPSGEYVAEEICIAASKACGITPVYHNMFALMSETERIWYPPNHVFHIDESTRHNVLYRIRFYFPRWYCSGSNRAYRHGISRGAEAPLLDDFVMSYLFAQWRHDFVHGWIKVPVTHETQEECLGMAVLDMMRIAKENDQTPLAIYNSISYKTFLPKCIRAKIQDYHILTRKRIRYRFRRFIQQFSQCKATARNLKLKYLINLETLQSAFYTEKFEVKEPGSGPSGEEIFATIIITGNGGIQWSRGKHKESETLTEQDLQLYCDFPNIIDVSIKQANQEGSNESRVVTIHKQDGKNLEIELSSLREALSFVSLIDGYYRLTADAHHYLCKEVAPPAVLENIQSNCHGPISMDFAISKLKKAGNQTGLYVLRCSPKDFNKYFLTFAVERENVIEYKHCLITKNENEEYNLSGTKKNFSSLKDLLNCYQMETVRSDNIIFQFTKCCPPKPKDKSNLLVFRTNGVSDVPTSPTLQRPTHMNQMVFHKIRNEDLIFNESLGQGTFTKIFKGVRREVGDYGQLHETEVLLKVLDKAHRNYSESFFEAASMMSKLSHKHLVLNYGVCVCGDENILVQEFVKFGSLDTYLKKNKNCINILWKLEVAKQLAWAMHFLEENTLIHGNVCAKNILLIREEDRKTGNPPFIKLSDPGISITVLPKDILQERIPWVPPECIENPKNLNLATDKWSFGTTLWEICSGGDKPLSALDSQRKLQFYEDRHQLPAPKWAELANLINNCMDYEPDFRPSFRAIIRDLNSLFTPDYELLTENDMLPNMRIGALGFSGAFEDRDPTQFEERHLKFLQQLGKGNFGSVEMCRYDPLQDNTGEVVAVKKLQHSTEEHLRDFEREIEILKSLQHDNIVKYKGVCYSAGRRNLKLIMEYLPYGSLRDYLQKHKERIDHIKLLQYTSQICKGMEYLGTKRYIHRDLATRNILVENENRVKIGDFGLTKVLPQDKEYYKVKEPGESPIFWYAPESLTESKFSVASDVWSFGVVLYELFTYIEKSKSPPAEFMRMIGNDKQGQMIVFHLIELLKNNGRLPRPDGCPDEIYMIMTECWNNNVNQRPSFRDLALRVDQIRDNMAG
# [14] = molecular target: T1, Signal transducer and activator of transcription 3; assay: Inhibition of IL-6 induced STAT3 phosphorylation at Tyr705 residue in human MCF7 cells assessed as phosphorylation intensity level at 0.5 uM preincubated for 1 hr followed by IL-6 stimulation and measured after 1 hr by Western blot analysis; type: cell-based; design: scale not given: the % may be the effect or the level left
# [15] = molecular target: T1, Signal transducer and activator of transcription 3; assay: Inhibition of IL-6 induced STAT3 phosphorylation at Tyr705 residue in human MCF7 cells preincubated for 1 hr followed by IL-6 stimulation and measured after 1 hr by Western blot analysis; type: cell-based
# [16] = molecular target: T1, Signal transducer and activator of transcription 3; assay: Inhibition of IL-6 induced STAT3 phosphorylation at Tyr705 residue in human MCF7 cells assessed as phosphorylation intensity level at 2 uM preincubated for 1 hr followed by IL-6 stimulation and measured after 1 hr by Western blot analysis; type: cell-based; design: scale not given: the % may be the effect or the level left
# [17] = molecular target: T1, Signal transducer and activator of transcription 3; assay: Inhibition of IL-6 induced STAT3 phosphorylation at Tyr705 residue in human MCF7 cells assessed as phosphorylation intensity level at 4 uM preincubated for 1 hr followed by IL-6 stimulation and measured after 1 hr by Western blot analysis; type: cell-based; design: scale not given: the % may be the effect or the level left
# [18] = molecular target: T1, Signal transducer and activator of transcription 3; assay: Inhibition of IL-6 induced STAT3 phosphorylation at Tyr705 residue in human MCF7 cells assessed as phosphorylation intensity level at 1 uM preincubated for 1 hr followed by IL-6 stimulation and measured after 1 hr by Western blot analysis; type: cell-based; design: scale not given: the % may be the effect or the level left
# [19] = molecular target: T3, Signal transducer and activator of transcription 1-alpha/beta (Homo sapiens) (UniProt P42224); assay: Inhibition of FAM-G(py)DKPHVL-NH2 binding to GST-tagged STAT1-SH2 domain (unknown origin) preincubated for 15 mins followed by FAM-G(py)DKPHVL-NH2 addition and measured after 30 mins by TR-FRET assay
# T3 sequence (whole entry): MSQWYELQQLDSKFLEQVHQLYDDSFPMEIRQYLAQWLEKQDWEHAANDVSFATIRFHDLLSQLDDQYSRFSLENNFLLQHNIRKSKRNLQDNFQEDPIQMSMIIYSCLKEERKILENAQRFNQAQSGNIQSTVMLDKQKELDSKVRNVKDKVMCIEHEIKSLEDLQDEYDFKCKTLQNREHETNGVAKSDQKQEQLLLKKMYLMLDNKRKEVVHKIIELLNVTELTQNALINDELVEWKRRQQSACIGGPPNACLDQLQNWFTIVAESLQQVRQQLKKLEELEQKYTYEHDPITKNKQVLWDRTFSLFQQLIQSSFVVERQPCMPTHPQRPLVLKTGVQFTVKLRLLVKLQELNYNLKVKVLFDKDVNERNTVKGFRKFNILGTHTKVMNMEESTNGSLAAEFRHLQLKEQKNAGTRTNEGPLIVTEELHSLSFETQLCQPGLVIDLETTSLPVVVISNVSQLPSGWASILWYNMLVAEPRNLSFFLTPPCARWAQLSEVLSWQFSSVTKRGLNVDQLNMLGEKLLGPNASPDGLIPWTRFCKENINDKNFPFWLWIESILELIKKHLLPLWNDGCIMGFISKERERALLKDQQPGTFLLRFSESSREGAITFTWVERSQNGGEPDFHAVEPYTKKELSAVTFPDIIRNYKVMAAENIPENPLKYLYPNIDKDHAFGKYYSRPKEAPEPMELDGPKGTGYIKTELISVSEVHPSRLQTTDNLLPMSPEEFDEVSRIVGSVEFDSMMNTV
# [20] = molecular target: T1, Signal transducer and activator of transcription 3; assay: Inhibition of FAM-G(py)LPQTV-NH2 binding to GST-tagged STAT3-SH2 domain (unknown origin) preincubated for 15 mins followed by FAM-G(py)LPQTV-NH2 addition and measured after 30 mins by TR-FRET assay
# [21] = molecular target: Tyrosine-protein kinase JAK2 (Homo sapiens) (UniProt O60674); assay: Inhibition of IL-6 induced JAK2 phosphorylation at Tyr1007/1008 residue in human MCF7 cells preincubated for 1 hr followed by IL-6 stimulation and measured after 1 hr by Western blot analysis; type: cell-based
# T1 sequence (P40763 whole entry): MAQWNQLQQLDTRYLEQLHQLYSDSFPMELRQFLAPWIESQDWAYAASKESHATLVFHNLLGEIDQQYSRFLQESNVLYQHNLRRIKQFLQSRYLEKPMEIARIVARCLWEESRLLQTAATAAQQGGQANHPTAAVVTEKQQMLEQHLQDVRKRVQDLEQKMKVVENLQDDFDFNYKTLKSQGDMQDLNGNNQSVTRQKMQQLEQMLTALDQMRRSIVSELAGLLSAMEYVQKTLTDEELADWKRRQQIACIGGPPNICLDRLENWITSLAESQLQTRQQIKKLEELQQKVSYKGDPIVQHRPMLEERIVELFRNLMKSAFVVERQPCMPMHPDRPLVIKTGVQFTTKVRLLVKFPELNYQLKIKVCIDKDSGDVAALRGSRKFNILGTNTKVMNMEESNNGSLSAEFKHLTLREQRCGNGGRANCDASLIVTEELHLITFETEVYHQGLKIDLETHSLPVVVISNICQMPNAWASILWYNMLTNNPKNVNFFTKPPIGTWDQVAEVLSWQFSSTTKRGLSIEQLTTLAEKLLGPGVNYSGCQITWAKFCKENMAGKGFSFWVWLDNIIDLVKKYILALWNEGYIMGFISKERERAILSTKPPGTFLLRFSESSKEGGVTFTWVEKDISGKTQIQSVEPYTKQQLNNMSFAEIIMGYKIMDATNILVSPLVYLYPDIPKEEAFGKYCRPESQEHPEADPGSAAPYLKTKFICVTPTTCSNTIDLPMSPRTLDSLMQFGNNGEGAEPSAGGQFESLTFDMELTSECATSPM
Compound,inhibition [1],IC50 (MCF7 [2]) [nM],inhibition [3],IC50 (A549) [nM],IC50 (MDA-MB-231 [4]) [nM],Activity (MCF7 [8]),Activity [14] [%],Activity [16] [%],Activity [17] [%],Activity [18] [%],also measured
CC(C)=CCC1=C(O)C(=O)c2ccccc2C1=O [LAPACHOL],inactive,> 30000,inactive,> 30000,> 30000,,,,,,
CC1(C)CCC2=C(O1)c1ccccc1C(=O)C2=O [LAPACHONE],inactive,710,inactive,1960,1390,,,,,,
CC(=O)c1cc2c(o1)C(=O)c1ccccc1C2=O [NAPABUCASIN],,240,,120,250,Non-Toxic,,,,,Activity (MDA-MB-231 [5]): 111%; inhibition (MDA-MB-231 [6]): Dose-dependent effect; Activity (MDA-MB-231 [7]): 107%; inhibition [9]: 95.5%; Activity (MDA-MB-231 [10]): 28%; Activity (MDA-MB-231 [11]): 48%; inhibition [12]: inactive; inhibition [13]: 84.7%
CC(=O)c1cc2c(o1)C(=O)c1cccc(O)c1C2=O,,51,,44,170,Non-Toxic,107,38,23,84,IC50 [15]: 2000 nM
C[C@H](O)c1cc2c(o1)C(=O)c1c(O)cccc1C2=O,Active,1110,100%,280,330,,,,,,
C[C@H](O)c1cc2c(o1)C(=O)c1ccccc1C2=O,,280,,720,1590,Non-Toxic,36,20,35,23,
C[C@H](O)c1cc2c(o1)C(=O)c1cccc(O)c1C2=O,Active,500,100%,130,410,Non-Toxic,76,43,3,75,Activity (MDA-MB-231 [5]): 68%; inhibition [19]: inactive; inhibition (MDA-MB-231 [6]): Dose-dependent effect; Activity (MDA-MB-231 [7]): 78%; IC50 [15]: 2000 nM; inhibition [20]: inactive; inhibition [9]: 94.8%; Activity (MDA-MB-231 [10]): 35%; Activity (MDA-MB-231 [11]): 21%; inhibition [21]: Dose-dependent effect; inhibition [12]: inactive; inhibition [13]: 80.6%
CC1(C)CCC2=C(O1)C(=O)c1ccccc1C2=O [ALPHA-LAPACHONE],inactive,> 30000,inactive,> 30000,> 30000,,,,,,
